# Experimental data from patent publication US4442044A, “Process for preparing monoesters and diesters of N-alkyl substituted amino methyl phosphonic acid” (priority 1983, dated 1984).
# Legend:
# Assay type in all cases: in vivo
# [1] = tested on: Morningglory; experiment: post-emergent herbicidal activity, greenhouse; details: 4 WAT
# Method in brief: (§1)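 Seeds or propagules sown in compacted top soil, grown 2–3 weeks in greenhouse, then sprayed with compound solution/suspension containing ~0.4% emulsifier at tabulated rates. Injury scored visually versus untreated controls at ~2 and 4 weeks after treatment, expressed as a herbicidal activity index.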
# [2] = tested on: Wild Buckwheat; experiment: post-emergent herbicidal activity, greenhouse; details: Table II, 4 WAT
# Method in brief: as §1
# [3] = tested on: Barnyardgrass; experiment: post-emergent herbicidal activity, greenhouse; details: 4 WAT
# Method in brief: as §1
# [4] = tested on: Cocklebur; experiment: post-emergent herbicidal activity, greenhouse; details: 4 WAT
# Method in brief: as §1
# [5] = tested on: Panicum Spp; experiment: post-emergent herbicidal activity, greenhouse; details: Table II, 4 WAT
# Method in brief: as §1
# [6] = tested on: Lambsquarters; experiment: post-emergent herbicidal activity, greenhouse; details: 4 WAT
# Method in brief: as §1
# [7] = tested on: Yellow Nutsedge; experiment: post-emergent herbicidal activity, greenhouse; details: Table I, 4 WAT
# Method in brief: as §1
# [8] = tested on: Canada Thistle; experiment: post-emergent herbicidal activity, greenhouse; details: Table I, 4 WAT
# Method in brief: as §1
# [9] = tested on: Sorghum; experiment: post-emergent herbicidal activity, greenhouse; details: Table II, 4 WAT
# Method in brief: as §1
# [10] = tested on: Rice; experiment: post-emergent herbicidal activity, greenhouse; details: Table II, 4 WAT
# Method in brief: as §1
# [11] = tested on: Smartweed; experiment: post-emergent herbicidal activity, greenhouse; details: 4 WAT
# Method in brief: as §1
# [12] = tested on: Soybean; experiment: post-emergent herbicidal activity, greenhouse; details: Table II, 4 WAT
# Method in brief: as §1
# [13] = tested on: Downy Brome; experiment: post-emergent herbicidal activity, greenhouse; details: 4 WAT
# Method in brief: as §1
# [14] = tested on: Quackgrass; experiment: post-emergent herbicidal activity, greenhouse; details: Table I, 4 WAT
# Method in brief: as §1
# [15] = tested on: Crabgrass; experiment: post-emergent herbicidal activity, greenhouse; details: Table II, 4 WAT
# Method in brief: as §1
# [16] = tested on: Velvetleaf; experiment: post-emergent herbicidal activity, greenhouse; details: 4 WAT
# Method in brief: as §1
# [17] = tested on: Wheat; experiment: post-emergent herbicidal activity, greenhouse; details: Table II, 4 WAT
# Method in brief: as §1
# [18] = tested on: Johnsongrass; experiment: post-emergent herbicidal activity, greenhouse; details: Table I, 4 WAT
# Method in brief: as §1
# [19] = tested on: Sugar Beet; experiment: post-emergent herbicidal activity, greenhouse; details: Table II, 4 WAT
# Method in brief: as §1
# [20] = tested on: Hemp Sesbania; experiment: post-emergent herbicidal activity, greenhouse; details: Table II, 4 WAT
# Method in brief: as §1
# [21] = tested on: Morningglory; experiment: pre-emergent herbicidal activity, soil incorporation; details: Table III, 2 WAT, 11.2 kg/h
# Method in brief: (§2)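 Seeds/propagules placed on compacted top soil, then covered with soil admixed with composition containing known active-ingredient amount (soil incorporation); sub-irrigated on wet sand bench about two weeks under ordinary sunlight and watering. Emerged plants counted per species against untreated control; index from average percent control.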
# [22] = tested on: Barnyardgrass; experiment: as above; details: Table III, 2 WAT, 11.2 kg/h
# Method in brief: as §2
# [23] = tested on: Cocklebur; experiment: as above; details: Table III, 2 WAT, 11.2 kg/h
# Method in brief: as §2
# [24] = tested on: Lambsquarters; experiment: as above; details: Table III, 2 WAT, 11.2 kg/h
# Method in brief: as §2
# [25] = tested on: Yellow Nutsedge; experiment: as above; details: Table III, 2 WAT, 11.2 kg/h
# Method in brief: as §2
# [26] = tested on: Canada Thistle; experiment: as above; details: Table III, 2 WAT, 11.2 kg/h
# Method in brief: as §2
# [27] = tested on: Smartweed; experiment: as above; details: Table III, 2 WAT, 11.2 kg/h
# Method in brief: as §2
# [28] = tested on: Downy Brome; experiment: as above; details: Table III, 2 WAT, 11.2 kg/h
# Method in brief: as §2
# [29] = tested on: Quackgrass; experiment: as above; details: Table III, 2 WAT, 11.2 kg/h
# Method in brief: as §2
# [30] = tested on: Velvetleaf; experiment: as above; details: Table III, 2 WAT, 11.2 kg/h
# Method in brief: as §2
# [31] = tested on: Johnsongrass; experiment: as above; details: Table III, 2 WAT, 11.2 kg/h
# Method in brief: as §2
compound,measurement,setting,value
"CCCCCOC(=O)CNCP(=O)(O)OC(C)C#N (stereo not drawn) [Example 6, glycine, N-[[(1-cyanoethoxy)hydroxy-phosphinyl]methyl]pentyl ester, hemihydrate]",post-emergent herbicidal activity index,"[1]; Table I, 5.6 kg/h",3 (75-99% control)
same,post-emergent herbicidal activity index,"[1]; Table I, 11.2 kg/h",2 (50-74% control)
same,post-emergent herbicidal activity index,"[1]; Table II, 0.28 kg/h",2 (50-74% control)
same,post-emergent herbicidal activity index,"[1]; Table II, 1.12 kg/h",2 (50-74% control)
same,post-emergent herbicidal activity index,"[1]; Table II, 5.6 kg/h",3 (75-99% control)
same,post-emergent herbicidal activity index,[2]; 0.28 kg/h,2 (50-74% control)
same,post-emergent herbicidal activity index,[2]; 1.12 kg/h,2 (50-74% control)
same,post-emergent herbicidal activity index,[2]; 5.6 kg/h,4 (100% control)
same,post-emergent herbicidal activity index,"[3]; Table I, 5.6 kg/h",3 (75-99% control)
same,post-emergent herbicidal activity index,"[3]; Table I, 11.2 kg/h",3 (75-99% control)
same,post-emergent herbicidal activity index,"[3]; Table II, 0.28 kg/h",2 (50-74% control)
same,post-emergent herbicidal activity index,"[3]; Table II, 1.12 kg/h",3 (75-99% control)
same,post-emergent herbicidal activity index,"[3]; Table II, 5.6 kg/h",3 (75-99% control)
same,post-emergent herbicidal activity index,"[4]; Table I, 5.6 kg/h",3 (75-99% control)
same,post-emergent herbicidal activity index,"[4]; Table I, 11.2 kg/h",3 (75-99% control)
same,post-emergent herbicidal activity index,"[4]; Table II, 0.28 kg/h",2 (50-74% control)
same,post-emergent herbicidal activity index,"[4]; Table II, 1.12 kg/h",2 (50-74% control)
same,post-emergent herbicidal activity index,"[4]; Table II, 5.6 kg/h",3 (75-99% control)
same,post-emergent herbicidal activity index,[5]; 0.28 kg/h,4 (100% control)
same,post-emergent herbicidal activity index,[5]; 1.12 kg/h,4 (100% control)
same,post-emergent herbicidal activity index,[5]; 5.6 kg/h,4 (100% control)
same,post-emergent herbicidal activity index,"[6]; Table I, 5.6 kg/h",2 (50-74% control)
same,post-emergent herbicidal activity index,"[6]; Table I, 11.2 kg/h",4 (100% control)
same,post-emergent herbicidal activity index,"[6]; Table II, 0.28 kg/h",1 (25-49% control)
same,post-emergent herbicidal activity index,"[6]; Table II, 1.12 kg/h",3 (75-99% control)
same,post-emergent herbicidal activity index,"[6]; Table II, 5.6 kg/h",4 (100% control)
same,post-emergent herbicidal activity index,[7]; 5.6 kg/h,2 (50-74% control)
same,post-emergent herbicidal activity index,[7]; 11.2 kg/h,4 (100% control)
same,post-emergent herbicidal activity index,[8]; 5.6 kg/h,4 (100% control)
same,post-emergent herbicidal activity index,[8]; 11.2 kg/h,4 (100% control)
same,post-emergent herbicidal activity index,[9]; 0.28 kg/h,1 (25-49% control)
same,post-emergent herbicidal activity index,[9]; 1.12 kg/h,3 (75-99% control)
same,post-emergent herbicidal activity index,[9]; 5.6 kg/h,4 (100% control)
same,post-emergent herbicidal activity index,[10]; 0.28 kg/h,1 (25-49% control)
same,post-emergent herbicidal activity index,[10]; 1.12 kg/h,2 (50-74% control)
same,post-emergent herbicidal activity index,[10]; 5.6 kg/h,4 (100% control)
same,post-emergent herbicidal activity index,"[11]; Table I, 5.6 kg/h",4 (100% control)
same,post-emergent herbicidal activity index,"[11]; Table I, 11.2 kg/h",4 (100% control)
same,post-emergent herbicidal activity index,"[11]; Table II, 0.28 kg/h",1 (25-49% control)
same,post-emergent herbicidal activity index,"[11]; Table II, 1.12 kg/h",3 (75-99% control)
same,post-emergent herbicidal activity index,"[11]; Table II, 5.6 kg/h",3 (75-99% control)
same,post-emergent herbicidal activity index,[12]; 0.28 kg/h,1 (25-49% control)
same,post-emergent herbicidal activity index,[12]; 1.12 kg/h,2 (50-74% control)
same,post-emergent herbicidal activity index,[12]; 5.6 kg/h,4 (100% control)
same,post-emergent herbicidal activity index,"[13]; Table I, 5.6 kg/h",1 (25-49% control)
same,post-emergent herbicidal activity index,"[13]; Table I, 11.2 kg/h",3 (75-99% control)
same,post-emergent herbicidal activity index,"[13]; Table II, 0.28 kg/h",3 (75-99% control)
same,post-emergent herbicidal activity index,"[13]; Table II, 1.12 kg/h",3 (75-99% control)
same,post-emergent herbicidal activity index,"[13]; Table II, 5.6 kg/h",4 (100% control)
same,post-emergent herbicidal activity index,[14]; 5.6 kg/h,2 (50-74% control)
same,post-emergent herbicidal activity index,[14]; 11.2 kg/h,3 (75-99% control)
same,post-emergent herbicidal activity index,[15]; 0.28 kg/h,3 (75-99% control)
same,post-emergent herbicidal activity index,[15]; 1.12 kg/h,3 (75-99% control)
same,post-emergent herbicidal activity index,[15]; 5.6 kg/h,4 (100% control)
same,post-emergent herbicidal activity index,"[16]; Table I, 5.6 kg/h",3 (75-99% control)
same,post-emergent herbicidal activity index,"[16]; Table I, 11.2 kg/h",3 (75-99% control)
same,post-emergent herbicidal activity index,"[16]; Table II, 0.28 kg/h",1 (25-49% control)
same,post-emergent herbicidal activity index,"[16]; Table II, 1.12 kg/h",2 (50-74% control)
same,post-emergent herbicidal activity index,"[16]; Table II, 5.6 kg/h",3 (75-99% control)
same,post-emergent herbicidal activity index,[17]; 0.28 kg/h,2 (50-74% control)
same,post-emergent herbicidal activity index,[17]; 1.12 kg/h,2 (50-74% control)
same,post-emergent herbicidal activity index,[17]; 5.6 kg/h,4 (100% control)
same,post-emergent herbicidal activity index,[18]; 5.6 kg/h,1 (25-49% control)
same,post-emergent herbicidal activity index,[18]; 11.2 kg/h,2 (50-74% control)
same,post-emergent herbicidal activity index,[19]; 0.28 kg/h,2 (50-74% control)
same,post-emergent herbicidal activity index,[19]; 1.12 kg/h,4 (100% control)
same,post-emergent herbicidal activity index,[19]; 5.6 kg/h,4 (100% control)
same,post-emergent herbicidal activity index,[20]; 0.28 kg/h,1 (25-49% control)
same,post-emergent herbicidal activity index,[20]; 1.12 kg/h,2 (50-74% control)
same,post-emergent herbicidal activity index,[20]; 5.6 kg/h,4 (100% control)
same,pre-emergent herbicidal activity index,[21],0 (1-24% control)
same,pre-emergent herbicidal activity index,[22],0 (1-24% control)
same,pre-emergent herbicidal activity index,[23],0 (1-24% control)
same,pre-emergent herbicidal activity index,[24],0 (1-24% control)
same,pre-emergent herbicidal activity index,[25],0 (1-24% control)
same,pre-emergent herbicidal activity index,[26],0 (1-24% control)
same,pre-emergent herbicidal activity index,[27],0 (1-24% control)
same,pre-emergent herbicidal activity index,[28],0 (1-24% control)
same,pre-emergent herbicidal activity index,[29],0 (1-24% control)
same,pre-emergent herbicidal activity index,[30],0 (1-24% control)
same,pre-emergent herbicidal activity index,[31],0 (1-24% control)
